Experiments:
[1] = maximum absorption wavelength of the dichroic material from ultraviolet visible spectrum in solution; type: physicochemical; settings: solution in a good solvent, 380 to 800 nm
Excerpt: Here, the maximum absorption wavelength (nm) of the dichroic material is acquired from an ultraviolet visible spectrum in a wavelength range of 380 to 800 nm measured by a spectrophotometer using a solution prepared by dissolving the dichroic material in a good solvent.

[2] = compatibility between liquid crystal compound and dichroic material (phase separation observed on hot stage under polarizing microscope); type: physicochemical; parameters: key: Compatible: in a case where phase separation is not observed, it is defined as “compatible”; Incompatible: in a case where phase separation is observed, it is defined as “incompatible”; settings: for Second dichroic material Compatible or incompatible: with the liquid crystal compound of the same composition (same example); for First dichroic material Compatible or incompatible: with the liquid crystal compound of the same composition
Excerpt: Here, the compatibility between the liquid crystal compound and the dichroic material can be confirmed by the following method.
First, two polarizers of an optical microscope (ECLIPSE E600 POL, manufactured by Nikon Corporation) are arranged so as to be orthogonal to each other, and a sample stand is set between the two polarizers.
Next, a sample composition obtained by mixing the liquid crystal compound contained in the polarizer-forming composition and a certain kind of dichroic material at a mass ratio is cast on glass, and this glass is set on a hot stage placed on the sample stand.
Next, the phase separation state of the sample is observed by raising or lowering the temperature of the hot stage in a range of higher than or equal to a higher temperature between the melting point of the liquid crystal compound and the melting point of the dichroic material and lower than or equal to a lower temperature between the isotropic phase transition temperature of the liquid crystal compound and the isotropic phase transition temperature of the dichroic material.
In this operation, in a case where phase separation is not observed, it is defined as “compatible”. Further, in a case where phase separation is observed, it is defined as “incompatible”.
Further, the compatibility between the liquid crystal compound and the first dichroic material or the second dichroic material in the polarizer-forming composition was confirmed by the method described above, and the results thereof are listed in Table 1.

[3] = first listed first dichroic material
[4] = second listed first dichroic material

SMILES | maximum absorption wavelength [1] | Second dichroic material Compatible or incompatible [2] | First dichroic material Compatible or incompatible [2, 3] | First dichroic material Compatible or incompatible [2, 4]
C=CC(=O)OCCCCCCCCCOc1ccc(N=Nc2cc3sc(N=Nc4ccc(N(CC)CCOC(=O)C=C)cc4)nc3s2)cc1 [Example C1] | 592 nm | Incompatible | – | –
C=CC(=O)OCCCCCCCCCCOc1ccc(N=Nc2cc3sc(N=Nc4ccc(N(CC)CCOC(=O)C=C)cc4)nc3s2)cc1 [Example C2] | 592 nm | Incompatible | – | –
C=CC(=O)OCCCCCCCCCOc1ccc(N=Nc2cc3sc(N=Nc4ccc(N(CC)CCOC(=O)C=C)cc4C)nc3s2)cc1 [Example C3] | 605 nm | Incompatible | – | –
C=CC(=O)OCCN(CC)c1ccc(N=Nc2nc3sc(N=Nc4ccc(OCCCCCCCCCOC(=O)CC)cc4)cc3s2)cc1 [Example C4] | 592 nm | Incompatible | – | –
C=CC(=O)OCCN(CC)c1ccc(N=Nc2nc3sc(N=Nc4ccc(OCCCCCCOC(C)=O)cc4)cc3s2)cc1 [Example C5] | 592 nm | – | Compatible | Compatible
FC(F)(F)c1ccc(N=Nc2ccc(N=Nc3ccc(N4CCCC4)cc3)cc2)cc1 [Example M1] | 502 nm | – | – | Compatible
CCCCc1ccc(N=Nc2ccc(N=Nc3ccc(N(CC)CCC#N)cc3)cc2)cc1 [Example M2] | 457 nm | – | – | Compatible
C=CC(=O)CCCN(CC)c1ccc(N=Nc2ccc(N=Nc3ccc(CCCC)cc3)cc2)cc1 [Example M3] | 442 nm | – | – | Compatible
C=CC(=O)OCCCCOc1ccc(N=Nc2ccc(N=Nc3ccc(N=Nc4ccc(OCCCCOC(=O)C=C)cc4)cc3C)cc2)cc1 [Example Y1] | 413 nm | – | Compatible | –
C=CC(=O)OCCCCOc1ccc(N=Nc2ccc(N=Nc3ccc(N=Nc4ccc(OCCCCOC(=O)C=C)cc4O)cc3)c(C)c2)cc1 [Example Y2] | 445 nm | – | Compatible | –
C=CC(=O)OCCCCCOc1ccc(N=Nc2ccc(N=Nc3ccc(N=Nc4ccc(OCCCCCOC(=O)C=C)cc4)cc3C)cc2)cc1 [Example Y3] | 413 nm | – | Compatible | –
C=CC(=O)OCCCCCCCCCCCCOc1ccc(N=Nc2ccc(N=Nc3ccc(N=Nc4ccc(OCCCCCCCCCCCCOC(=O)C=C)cc4O)cc3)c(C)c2)cc1 [Example Y4] | 445 nm | Incompatible | – | –
C=CC(=O)OCCCCCCOc1ccc(N=Nc2ccc(N=Nc3ccc(N=Nc4ccc(OCCCCCCOC(=O)C=C)cc4)cc3C)cc2)cc1 [Example Y5] | 413 nm | – | Compatible | –
C=CC(=O)OCCCCCCCCOc1ccc(N=Nc2ccc(N=Nc3ccc(N=Nc4ccc(OCCCCCCCCOC(=O)C=C)cc4)cc3C)cc2)cc1 [Example Y6] | 413 nm | – | Compatible | –
C=CC(=O)OCCCCCCCCCCCOc1ccc(N=Nc2cc3sc(NC(=O)c4ccc(CCCC)cc4)nc3s2)cc1 [Example Y7] | 443 nm | Incompatible | – | –
C=CC(=O)CC(C)OC(=O)CCC(=O)OCCc1ccc(N=Nc2cc3sc(NC(=O)c4ccc(CCCC)cc4)nc3s2)cc1 (stereo not drawn) [Example Y8] | 430 nm | – | Compatible | –
